# Results from US6710168B1, “Glycopeptide antibiotics, combinatorial libraries of glycopeptide antibiotics and methods of producing same” (The Trustees of the University of Princeton, priority 1999, dated 2004).
# How the values were obtained:
# Assay type in all cases: cell-based
# [1] = test system: gentamicin, streptmycin, vancomycin resistant Enterococcus faecalis (ATCC 51299); assay: microbe, parasite or virus in culture; conditions: for MIC: Enterococcus faecalis, ATCC51299, read-out: MIC VREF; for MIC VREF: Enterococcus faecalis ATCC51299, vancomycin resistance
# Protocol: (§1) Evaluation of vancomycin analogs is performed using in vitro susceptibility tests and a time-kill assay. [NCCL Standard, 1993] In susceptibility tests, five strains of bacteria, two of the most important: Staphylococcus aureus and Enterococcus faecalis (both susceptible and resistant strains), and Bacillus cereus are chosen and bacteria viability remaining in each well is evaluated using a colorimetric assay based on the tetrazolium salt 3-(4,5-dimethyl-2-thiazolyl)-2,5-diphenyl-2H tetrazolium bromide (MTT) and minimum inhibitory concentration (MIC) values are determined as μg/mL. [Mosmann, T. (1983); Damour, O., et al. (1992); Mikami, Y., et al. (1994)] This assay gives susceptibility information quickly, efficiently, and clearly.
# (§2) All strains [Bacillus cereus (ATCC® 11778), Staphylococcus aureus (ATCC® 29213), Methicillin resistant Staphylococcus aureus (ATCC® 33591), Enterococcus faecalis (ATCC® 29212), and gentamicin, streptmycin, vancomycin resistant Enterococcus faecalis (ATCC® 51299), are purchased from REMEL (Lenexa, Kans.).
# (§3) MICs are determined by the microdilution method using 96-well microplates. Samples are suspended with Cation Adjusted (20 to 25 mg of Ca^2+/mL and 10 to […] of Mg^2+) Mueller-Hinton broth (Difco Laboratories, Detroit, Mich.) and are two-fold diluted from 5 μg/mL to […] on microplates (12 step dilution). To each well, which contained 100 μL of cell suspension (10^6 CFU/mL), 100 μL of antibiotic solution is added and the plates are incubated at 37° C. for 24 h. 50 μL of MTT solution (1 mg/mL) is added to each well, then the plates are incubated under the same conditions (incubation time; 30 min for Bacillus cereus, Staphylococcus aureus, and Methicillin resistant Staphylococcus aureus; 2 hours for Enterococcus faecalis and Gentamicin, Streptmycin, Vancomycin Enterococcus faecalis). MTT is a yellow tetrazolium salt that is reduced by mitochondrial enzymes in viable cells to an insoluble blue formazan product. MIC values are evaluated by observing the lowest drug concentration to inhibit bacteria growth.
# [2] = test system: Enterococcus faecalis (ATCC 29212); assay: MIC susceptibility test, microdilution with MTT readout; conditions: Enterococcus faecalis ATCC29212; for MIC: read-out: MIC EF
# Protocol: as §1, §2, §3
# [3] = test system: Methicillin resistant Staphylococcus aureus (ATCC 33591); assay: as above; conditions: Staphylococcus aureus ATCC3359, Methicillin resistance; for MIC: ATCC 3359 / ATCC 33591 / MRSA, read-out: MIC MRSA
# Protocol: as §1, §2, §3
# [4] = test system: Bacillus cereus (ATCC 11778); assay: as above; conditions: for MIC: Bacillus cereus, ATCC11778, read-out: MIC BC; for MIC BC: Bacillus ceres ATCC11778
# Protocol: as §1, §2, §3
# [5] = test system: Staphylococcus aureus (ATCC 29213); assay: as above; conditions: Staphylococcus aureus ATCC29213; for MIC: read-out: MIC SA
# Protocol: as §1, §2, §3
# [6] = test system: Enterococcus faecalis CL5244, VanB; assay: MIC susceptibility test; conditions: Enterococcus faecalis CL5244, VanB; read-out: MIC CL5244
# Protocol: as §1, §3
# [7] = test system: Enterococcus faecium CL5137, VanA; assay: MIC susceptibility test; conditions: Enterococcus faecium CL5137, VanA; read-out: MIC CL5137
SMILES,MIC [1] [µg/mL],MIC [2] [µg/mL],MIC [3] [µg/mL],MIC [4] [µg/mL],MIC [5] [µg/mL],MIC [6] [µg/mL],MIC [7] [µg/mL],MIC VREF [1],MIC EF [2],MIC MRSA [3],MIC BC [4],MIC SA [5] [µg/mL]
"CN[C@H](CC(C)C)C(=O)N[C@H]1C(=O)N[C@@H](CC(N)=O)C(=O)N[C@H]2C(=O)N[C@H]3C(=O)N[C@H](C(=O)N[C@H](C(=O)O)c4cc(O)cc(O)c4-c4cc3ccc4O)[C@H](O)c3ccc(c(Cl)c3)Oc3cc2cc(c3OC2OC(CSc3nc(N)n[nH]3)C(O)C(O)C2OC2CC(C)(NCc3ccc(-c4ccc(Cl)cc4)cc3)C(O)C(C)O2)Oc2ccc(cc2Cl)[C@H]1O (some centres unmarked) [LXXIII, Vancosamine-N-4-(4-chlorophenyl)benzyl, Glucose-C6-S-3-amino-5-mercapto-1,2,4-triazole Vancomycin]",0.08,0.16,1,0.48,1.9,0.2,3.2,,,,,
"CN[C@@H](CC(C)C)C(=O)N[C@H]1C(=O)N[C@@H](CC(N)=O)C(=O)N[C@H]2C(=O)NC3C(=O)N[C@H](C(=O)N[C@@H](C(=O)O)c4cc(O)cc(O)c4-c4cc3ccc4O)[C@H](O)c3ccc(c(Cl)c3)Oc3cc2cc(c3OC2OC(CSc3nccc(N)n3)C(O)C(O)C2OC2CC(C)(N)C(O)C(C)O2)Oc2ccc(cc2Cl)[C@H]1O (some centres unmarked) [LXI, Glucose-C6-2-thio-4-aminopyrimidine Vancomycin]",0.63,0.63,1.3,0.63,0.63,3.2,> 50,,,,,
"CNC(=S)NCC1OC(Oc2c3cc4cc2Oc2ccc(cc2Cl)C(O)C2NC(=O)C(NC(=O)C4NC(=O)C(CC(N)=O)NC(=O)C(NC(=O)C(CC(C)C)NC)C(O)c4ccc(c(Cl)c4)O3)c3ccc(O)c(c3)-c3c(O)cc(O)cc3C(C(=O)O)NC2=O)C(OC2CC(C)(N)C(O)C(C)O2)C(O)C1O (centres unmarked) [XXXII, Glucose-C6-N-thiocarbonyl Methylamino Vancomycin]",,,,,,,,5.0 µg/mL,1.3 µg/mL,2.5 µg/mL,1.9 µg/mL,1.9
"CN[C@@H](CC(C)C)C(=O)N[C@H]1C(=O)N[C@@H](CC(N)=O)C(=O)N[C@H]2C(=O)NC3C(=O)N[C@H](C(=O)N[C@@H](C(=O)O)c4cc(O)cc(O)c4-c4cc3ccc4O)[C@H](O)c3ccc(c(Cl)c3)Oc3cc2cc(c3OC2OC(COS(=O)(=O)c3c(C)cc(C)cc3C)C(O)C(O)C2OC2CC(C)(NCc3ccc(-c4ccc(Cl)cc4)cc3)C(O)C(C)O2)Oc2ccc(cc2Cl)[C@H]1O (some centres unmarked) [XLII, N-4-(4-Chlorophenyl)benzylvancosamine-glucose-C6-2-mesitylenesulfonated Vancomycin]",1.9,1,> 5,1.9,> 5,0.8,6.3,,,,,
"CN[C@@H](CC(C)C)C(=O)N[C@H]1C(=O)N[C@@H](CC(N)=O)C(=O)N[C@H]2C(=O)NC3C(=O)N[C@H](C(=O)N[C@@H](C(=O)O)c4cc(O)cc(O)c4-c4cc3ccc4O)[C@H](O)c3ccc(c(Cl)c3)Oc3cc2cc(c3OC2OC(CSc3ccc(Br)cc3)C(O)C(O)C2OC2CC(C)(N)C(O)C(C)O2)Oc2ccc(cc2Cl)[C@H]1O (some centres unmarked) [LIX, Glucose-C6-1-thio-4-bromobenzene Vancomycin]",0.32,1,1,1.3,0.63,6.3,> 50,,,,,
"CCCCCCCCCCNCC1OC(Oc2c3cc4cc2Oc2ccc(cc2Cl)C(O)C2NC(=O)C(NC(=O)C4NC(=O)C(CC(N)=O)NC(=O)C(NC(=O)C(CC(C)C)NC)C(O)c4ccc(c(Cl)c4)O3)c3ccc(O)c(c3)-c3c(O)cc(O)cc3C(C(=O)O)NC2=O)C(OC2CC(C)(N)C(O)C(C)O2)C(O)C1O (centres unmarked) [XXXI, Glucose-C6-N-decyl Vancomycin]",,,,,,,,2.5 µg/mL,0.32 µg/mL,1.3 µg/mL,1.3 µg/mL,1.3
"CCCCCCCCCCCCCC(=O)NCC1OC(Oc2c3cc4cc2Oc2ccc(cc2Cl)C(O)C2NC(=O)C(NC(=O)C4NC(=O)C(CC(N)=O)NC(=O)C(NC(=O)C(CC(C)C)NC)C(O)c4ccc(c(Cl)c4)O3)c3ccc(O)c(c3)-c3c(O)cc(O)cc3C(C(=O)O)NC2=O)C(OC2CC(C)(N)C(O)C(C)O2)C(O)C1O (centres unmarked) [XXXV, Glucose-C6-N-myristoyl Vancomycin]",,,,,,,,0.16 µg/mL,0.015 µg/mL,1.3 µg/mL,3.8 µg/mL,2.5
"CNC(CC(C)C)C(=O)NC1C(=O)NC(CC(N)=O)C(=O)NC2C(=O)NC3C(=O)NC(C(=O)NC(C(=O)O)c4cc(O)cc(O)c4-c4cc3ccc4O)C(O)c3ccc(c(Cl)c3)Oc3cc2cc(c3OC2OC(CSCC(=O)O)C(O)C(O)C2OC2CC(C)(N)C(O)C(C)O2)Oc2ccc(cc2Cl)C1O (centres unmarked) [LXXI, Glucose-C6-thioacetato Vancomycin]",,,,,,,,5.0< μg/mL,5.0< μg/mL,5.0< μg/mL,5.0< μg/mL,5.0
"CNC(CC(C)C)C(=O)NC1C(=O)NC(CC(N)=O)C(=O)NC2C(=O)NC3C(=O)NC(C(=O)NC(C(=O)O)c4cc(O)cc(O)c4-c4cc3ccc4O)C(O)c3ccc(c(Cl)c3)Oc3cc2cc(c3OC2OC(CNC(=O)CN)C(O)C(O)C2OC2CC(C)(N)C(O)C(C)O2)Oc2ccc(cc2Cl)C1O (centres unmarked) [XXXIV, Glucose-C6-N-(glycine-carboxamide) Vancomycin]",,,,,,,,5.0< μg/mL,2.5 µg/mL,2.5 µg/mL,5.0 µg/mL,1.9
"CNC(CC(C)C)C(=O)NC1C(=O)NC(CC(N)=O)C(=O)NC2C(=O)NC3C(=O)NC(C(=O)NC(C(=O)O)c4cc(O)cc(O)c4-c4cc3ccc4O)C(O)c3ccc(c(Cl)c3)Oc3cc2cc(c3OC2OC(CNC(=O)c3cccs3)C(O)C(O)C2OC2CC(C)(N)C(O)C(C)O2)Oc2ccc(cc2Cl)C1O (centres unmarked) [XXXIII, Glucose-C6-N-(thiophene-2-carboxamide) Vancomycin]",,,,,,,,5.0 µg/mL,1.3 µg/mL,2.5 µg/mL,1.3 µg/mL,1.3
"CNC(CC(C)C)C(=O)NC1C(=O)NC(CC(N)=O)C(=O)NC2C(=O)NC3C(=O)NC(C(=O)NC(C(=O)O)c4cc(O)cc(O)c4-c4cc3ccc4O)C(O)c3ccc(c(Cl)c3)Oc3cc2cc(c3OC2OC(CNC(=O)c3ccccc3I)C(O)C(O)C2OC2CC(C)(N)C(O)C(C)O2)Oc2ccc(cc2Cl)C1O (centres unmarked) [XXXVI, Glucose-C6-N-2-iodobenzoyl Vancomycin]",,,,,,,,2.5 µg/mL,1.3 µg/mL,2.5 µg/mL,1.3 µg/mL,1.3
"CNC(CC(C)C)C(=O)NC1C(=O)NC(CC(N)=O)C(=O)NC2C(=O)NC3C(=O)NC(C(=O)NC(C(=O)O)c4cc(O)cc(O)c4-c4cc3ccc4O)C(O)c3ccc(c(Cl)c3)Oc3cc2cc(c3OC2OC(CSC(C)C)C(O)C(O)C2OC2CC(C)(N)C(O)C(C)O2)Oc2ccc(cc2Cl)C1O (centres unmarked) [LIII, Glucose-C6-thiopropianato Vancomycin]",,,,,,,,5.0< μg/mL,2.5 µg/mL,2.5 µg/mL,1.3 µg/mL,2.5
